# Measured values: patent publication US20240109917A1 (ACTELION PHARMACEUTICALS LTD, priority 2020, published 2024)
# Where two headings read alike, the source gives them in different places.
# Key:
# PDGFRβ = PDGFRβ (Rattus norvegicus (Rat), UniProt Q05030); experiment: PDGFRβ Cellular Assay (PDGFRb P-Y751 HTRF in A10 cells stimulated with PDGF-BB); format: cell-based
# How it was run: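 Rat A10 cells, plated overnight, were treated with compound for 3 hours, then stimulated with PDGF-BB (working stock 100 ng/mL in 10% FBS medium). After lysis, PDGFRβ P-Y751 was detected by HTRF.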
# [1] = target: Tb-labeled inactive PDGFRβ (Homo sapiens (Human), UniProt P09619); experiment: PDGFRβ LanthaScreen Assay; format: binding; conditions: read-out: PDGFR Lantha IC50
# Sequence of Tb-labeled inactive PDGFRβ (P09619 33-1106): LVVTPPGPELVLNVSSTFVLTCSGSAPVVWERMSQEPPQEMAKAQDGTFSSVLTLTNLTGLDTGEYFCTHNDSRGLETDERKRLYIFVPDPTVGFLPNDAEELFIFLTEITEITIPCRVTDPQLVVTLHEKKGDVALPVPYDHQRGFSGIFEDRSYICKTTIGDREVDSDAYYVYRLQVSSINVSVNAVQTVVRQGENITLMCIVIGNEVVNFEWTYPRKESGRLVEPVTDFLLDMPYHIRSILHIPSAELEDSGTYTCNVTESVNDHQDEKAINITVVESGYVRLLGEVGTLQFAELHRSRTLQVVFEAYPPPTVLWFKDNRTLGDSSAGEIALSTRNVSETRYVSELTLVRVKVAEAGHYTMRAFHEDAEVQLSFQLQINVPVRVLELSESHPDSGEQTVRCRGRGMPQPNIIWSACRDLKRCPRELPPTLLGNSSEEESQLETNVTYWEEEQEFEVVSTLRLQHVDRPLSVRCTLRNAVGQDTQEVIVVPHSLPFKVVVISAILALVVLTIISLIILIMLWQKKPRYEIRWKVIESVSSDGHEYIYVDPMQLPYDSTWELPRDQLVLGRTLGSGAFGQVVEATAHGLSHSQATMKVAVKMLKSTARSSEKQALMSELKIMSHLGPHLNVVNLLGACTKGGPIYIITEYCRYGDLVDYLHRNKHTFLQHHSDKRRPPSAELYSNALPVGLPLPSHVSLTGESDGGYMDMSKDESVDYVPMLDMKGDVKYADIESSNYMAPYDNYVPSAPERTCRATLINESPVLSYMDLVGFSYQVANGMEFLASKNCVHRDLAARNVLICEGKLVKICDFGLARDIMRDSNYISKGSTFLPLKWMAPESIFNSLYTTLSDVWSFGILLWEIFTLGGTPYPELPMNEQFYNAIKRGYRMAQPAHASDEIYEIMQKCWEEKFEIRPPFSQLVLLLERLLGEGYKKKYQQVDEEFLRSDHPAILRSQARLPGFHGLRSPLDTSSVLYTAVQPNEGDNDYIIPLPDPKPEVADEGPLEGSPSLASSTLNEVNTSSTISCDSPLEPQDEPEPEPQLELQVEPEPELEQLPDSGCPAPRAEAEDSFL
# Sequence of PDGFRβ (Q05030 32-1097): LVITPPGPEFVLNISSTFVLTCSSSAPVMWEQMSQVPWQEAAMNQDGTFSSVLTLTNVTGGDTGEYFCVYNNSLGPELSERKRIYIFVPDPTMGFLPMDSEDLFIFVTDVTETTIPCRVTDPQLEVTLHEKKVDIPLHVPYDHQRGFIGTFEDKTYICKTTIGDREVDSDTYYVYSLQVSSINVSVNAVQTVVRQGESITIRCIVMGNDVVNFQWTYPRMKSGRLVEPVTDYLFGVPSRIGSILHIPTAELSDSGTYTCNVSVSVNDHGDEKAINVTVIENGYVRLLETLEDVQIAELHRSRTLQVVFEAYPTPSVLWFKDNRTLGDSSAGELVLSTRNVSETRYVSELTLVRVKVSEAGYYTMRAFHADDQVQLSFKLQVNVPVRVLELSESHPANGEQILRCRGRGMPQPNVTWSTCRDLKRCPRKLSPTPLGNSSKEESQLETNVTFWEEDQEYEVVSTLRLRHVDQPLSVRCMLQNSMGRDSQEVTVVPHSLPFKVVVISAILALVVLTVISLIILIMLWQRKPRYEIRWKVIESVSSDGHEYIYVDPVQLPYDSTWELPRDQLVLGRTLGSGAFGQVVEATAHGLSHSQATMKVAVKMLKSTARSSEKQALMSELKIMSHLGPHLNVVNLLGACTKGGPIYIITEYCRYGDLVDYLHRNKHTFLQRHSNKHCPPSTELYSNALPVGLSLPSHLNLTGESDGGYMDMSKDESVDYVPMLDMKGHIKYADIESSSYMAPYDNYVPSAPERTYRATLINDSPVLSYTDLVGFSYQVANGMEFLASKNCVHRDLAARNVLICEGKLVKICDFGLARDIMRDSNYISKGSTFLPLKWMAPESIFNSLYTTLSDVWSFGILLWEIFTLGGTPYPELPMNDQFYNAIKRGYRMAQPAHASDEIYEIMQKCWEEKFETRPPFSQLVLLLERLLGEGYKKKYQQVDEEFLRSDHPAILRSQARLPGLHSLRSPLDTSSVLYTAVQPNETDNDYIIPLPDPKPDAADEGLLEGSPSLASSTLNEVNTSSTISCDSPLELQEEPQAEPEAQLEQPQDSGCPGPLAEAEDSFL
SMILES,IC50 (PDGFRβ; read-out: PDGFR Cellular IC50),IC50 [1],IC50 (PDGFRβ; PDGFR Cellular IC50)
"COCCn1cc(-c2cn3ncc(C(=O)Nc4cc(NC(=O)CCN5C[C@H]6CC[C@@H]5C6)cnc4C)c3s2)cn1 [Example 94, N-(5-(3-((1R,4S)-2-azabicyclo[2.2.1]heptan-2-yl)propanamido)-2-methylpyridin-3-yl)-2-(1-(2-methoxyethyl)-1H-pyrazol-4-yl)pyrazolo[5,1-b]thiazole-7-carboxamide]",143 nM,14.2 nM,
"Cc1ncc(NC(=O)CN2CCn3ccnc3C2)cc1NC(=O)c1cnn2cc(-c3cnn(C)c3)sc12 [Example 75, N-(5-(2-(5,6-dihydroimidazo[1,2-a]pyrazin-7 (8H)-yl)acetamido)-2-methylpyridin-3-yl)-2-(1-methyl-1H-pyrazol-4-yl)pyrazolo[5,1-b]thiazole-7-carboxamide]",2750 nM,47 nM,
"Cc1ncc(C(=O)NCCN2CC3CCC2CC3)cc1NC(=O)c1cnn2cc(-c3ccnc(N4CCOCC4)c3)sc12 [Example 484, N-(5-((2-(2-azabicyclo[2.2.2]octan-2-yl)ethyl)carbamoyl)-2-methylpyridin-3-yl)-2-(2-morpholinopyridin-4-yl)pyrazolo[5,1-b]thiazole-7-carboxamide]",44.1 nM,1.4 nM,
"Cc1ncc(NC(=O)CN2CCc3cccnc3C2)cc1NC(=O)c1cnn2cc(-c3cnn(C)c3)sc12 [Example 60, N-(5-(2-(5,6-dihydro-1,7-naphthyridin-7 (8H)-yl)acetamido)-2-methylpyridin-3-yl)-2-(1-methyl-1H-pyrazol-4-yl)pyrazolo[5,1-b]thiazole-7-carboxamide]",50.4 nM,18.3 nM,
"Cc1ncc(NC(=O)CN2C3CCC2COC3)cc1NC(=O)c1cnn2cc(-c3cnn(C)c3)sc12 [Example 44, N-(5-(2-(3-oxa-8-azabicyclo[3.2.1]octan-8-yl)acetamido)-2-methylpyridin-3-yl)-2-(1-methyl-1H-pyrazol-4-yl)pyrazolo[5,1-b]thiazole-7-carboxamide]",23.7 nM,11.6 nM,
"Cc1ncc(NC(=O)CN2CCOC[C@@H]2C)cc1NC(=O)c1cnn2cc(-c3cnn(C)c3)sc12 [Example 74, (S)-2-(1-methyl-1H-pyrazol-4-yl)-N-(2-methyl-5-(2-(3-methylmorpholino)acetamido)pyridin-3-yl)pyrazolo[5,1-b]thiazole-7-carboxamide]",,24.2 nM,41.6 nM
"Cc1ncc(NC(=O)CN2CCCC(F)(F)C2)cc1NC(=O)c1cnn2cc(-c3cnn(C)c3)sc12 [Example 49, N-(5-(2-(3,3-difluoropiperidin-1-yl)acetamido)-2-methylpyridin-3-yl)-2-(1-methyl-1H-pyrazol-4-yl)pyrazolo[5,1-b]thiazole-7-carboxamide]",4.7 nM,2.1 nM,
"Cc1ncc(NC(=O)CN2CCOCC23CC3)cc1NC(=O)c1cnn2cc(-c3cnn(C)c3)sc12 [Example 47, N-(5-(2-(7-oxa-4-azaspiro[2.5]octan-4-yl)acetamido)-2-methylpyridin-3-yl)-2-(1-methyl-1H-pyrazol-4-yl)pyrazolo[5,1-b]thiazole-7-carboxamide]",37.2 nM,16.5 nM,
"COCCn1cc(-c2cn3ncc(C(=O)Nc4cc(NC(=O)CCN5CCC(C)(C)C5)cnc4C)c3s2)cn1 [Example 89, N-(5-(3-(3,3-dimethylpyrrolidin-1-yl)propanamido)-2-methylpyridin-3-yl)-2-(1-(2-methoxyethyl)-1H-pyrazol-4-yl)pyrazolo[5,1-b]thiazole-7-carboxamide]",26.2 nM,12.7 nM,
"COCCn1cc(-c2cn3ncc(C(=O)Nc4cc(NC(=O)CCN5CC(C)(C)C5)cnc4C)c3s2)cn1 [Example 93, N-(5-(3-(3,3-dimethylazetidin-1-yl)propanamido)-2-methylpyridin-3-yl)-2-(1-(2-methoxyethyl)-1H-pyrazol-4-yl)pyrazolo[5,1-b]thiazole-7-carboxamide]",66 nM,29.1 nM,
"Cc1ncc(C(=O)NCCN2CCCC23CC3)cc1NC(=O)c1cnn2cc(-c3cnn(C)c3)sc12 [Example 2, N-(5-((2-(4-azaspiro[2.4]heptan-4-yl)ethyl)carbamoyl)-2-methylpyridin-3-yl)-2-(1-methyl-1H-pyrazol-4-yl)pyrazolo[5,1-b]thiazole-7-carboxamide]",30.2 nM,11.5 nM,
"Cc1ncc(NC(=O)CN2CCC3(CCO3)CC2)cc1NC(=O)c1cnn2cc(-c3cnn(C)c3)sc12 [Example 81, N-(5-(2-(1-oxa-7-azaspiro[3.5]nonan-7-yl)acetamido)-2-methylpyridin-3-yl)-2-(1-methyl-1H-pyrazol-4-yl)pyrazolo[5,1-b]thiazole-7-carboxamide]",79.8 nM,76.8 nM,
